Experimental data taken from US10105357B2, “Indication of antibiotic drugs for preparation of cancer inhibition pharmaceutical composition” (LAUNX BIOMEDICAL CO., LTD., priority 2014, dated 2018).
Where a name gives a salt, the structure may show the parent alone. Read-outs that look alike come from different tables or passages of the source.

Legend:
[1] = test system: C-33A (Cervical carcinoma); assay: Cell viability analysis, cervical cancer C-33A; format: cell-based, human; conditions: Homo sapiens, C-33-A, 72 h, read-out: The results of antibiotic drug inhibiting cancer cell lines (cell viability analysis), C-33A
[2] = test system: MCF7 (Mammary Gland, Adenocarcinoma); assay: Cell viability analysis, breast cancer MCF7; format: cell-based, human; conditions: Homo sapiens
U-2OS = assay: Cell viability analysis, osteosarcoma U-2OS; format: cell-based, human; conditions: Homo sapiens, U2OS, 72 h, read-out: The results of antibiotic drug inhibiting cancer cell lines (cell viability analysis), U2OS
[3] = test system: HCT116 (p53+) (Colorectal Carcinoma)
[4] = test system: PC3 (p53−) (Prostate Adenocarcinoma); assay: Cell viability analysis, prostate cancer PC3; format: cell-based, human; conditions: Homo sapiens
[5] = test system: BCC (basal cell carcinoma); assay: Cell viability analysis, skin cancer BCC; format: cell-based, human; conditions: Homo sapiens, 72 h, read-out: The results of antibiotic drug inhibiting cancer cell lines (cell viability analysis), BCC
NIH: OVCAR-3 = assay: Cell viability analysis, ovarian cancer NIH: OVCAR-3; format: cell-based, human; conditions: Homo sapiens, OVCAR-3, 72 h, read-out: The results of antibiotic drug inhibiting cancer cell lines (cell viability analysis), NIH-OVCAR-3
[6] = test system: MDA-MB-231 (Mammary Gland, Adenocarcinoma); assay: Cell viability analysis, breast cancer MDA-MB-231; format: cell-based, human; conditions: Homo sapiens, MDA-MB-231, 72 h, read-out: The results of antibiotic drug inhibiting cancer cell lines (cell viability analysis), MDA-MB231
BxPC-3 = assay: Cell viability analysis, pancreatic cancer BxPC-3; format: cell-based, human; conditions: Homo sapiens, BXPC-3, 72 h, read-out: The results of antibiotic drug inhibiting cancer cell lines (cell viability analysis), BxPC-3
[7] = test system: A375 (Amelanotic Melanoma); assay: Cell viability analysis, skin cancer A375; format: cell-based, human; conditions: Homo sapiens
[8] = test system: TSGH-8301 (Urinary Bladder Carcinoma); assay: Cell viability analysis, bladder cancer TSGH-8301; format: cell-based, human; conditions: Homo sapiens
T24 = assay: Cell viability analysis, bladder cancer T24; format: cell-based, human; conditions: Homo sapiens, T-24, 72 h, read-out: The results of antibiotic drug inhibiting cancer cell lines (cell viability analysis), T24
[9] = test system: MKN-45 (Gastric Adenocarcinoma); assay: Cell viability analysis, gastric cancer MKN-45; format: cell-based, human; conditions: Homo sapiens
AsPC-1 = assay: Cell viability analysis, pancreatic cancer AsPC-1; format: cell-based, human; conditions: Homo sapiens, ASPC1, 72 h, read-out: The results of antibiotic drug inhibiting cancer cell lines (cell viability analysis), AsPC-1
[10] = test system: Hep3B (hepatocellular carcinoma); assay: Cell viability analysis, hepatic cancer Hep3B; format: cell-based, human; conditions: Homo sapiens, Hep3B, 72 h, read-out: The results of antibiotic drug inhibiting cancer cell lines (cell viability analysis), Hep3B
[11] = test system: SAS (Tongue squamous cell carcinoma); assay: Cell viability analysis, tongue cancer SAS; format: cell-based, human; conditions: Homo sapiens, 72 h, read-out: The results of antibiotic drug inhibiting cancer cell lines (cell viability analysis), SAS
[12] = test system: LoVo (Colorectal Adenocarcinoma); assay: Cell viability analysis, colon cancer LoVo; format: cell-based, human; conditions: Homo sapiens, LoVo
[13] = test system: HeLa (Cervix Adenocarcinoma); assay: Cell viability analysis, cervical cancer HeLa; format: cell-based, human; conditions: Homo sapiens, HeLa
[14] = test system: HI650 (Lung Adenocarcinoma); assay: Cell viability analysis, lung cancer HI650; format: cell-based, human; conditions: Homo sapiens
[15] = test system: HepG2 (Hepatocellular Carcinoma); assay: Cell viability analysis, hepatic cancer HepG2; format: cell-based, human; conditions: Homo sapiens
[16] = test system: 786-O (Renal adenocarcinoma); assay: Cell viability analysis, renal cancer 786-O; format: cell-based, human; conditions: Homo sapiens, 786-0, 72 h, read-out: The results of antibiotic drug inhibiting cancer cell lines (cell viability analysis), 786-O
[17] = test system: AGS (Gastric Adenocarcinoma); assay: Cell viability analysis, gastric cancer AGS; format: cell-based, human; conditions: Homo sapiens
TOV-21G = assay: Cell viability analysis, ovarian cancer TOV-21G; format: cell-based, human; conditions: Homo sapiens, TOV21G, 72 h, read-out: The results of antibiotic drug inhibiting cancer cell lines (cell viability analysis), TOV-21G
[18] = test system: A549 (Lung Adenocarcinoma); assay: Cell viability analysis, lung cancer A549; format: cell-based, human; conditions: Homo sapiens
cancer cell lines = assay: Cell viability analysis (WST-1) on cancer cell lines; format: cell-based, human; conditions: drug 10 μM, 72 hours, WST-1; Table 3
[19] = test system: HL-60 (Acute Promyelocytic Leukemia); assay: Cell viability analysis, leukemia HL-60; format: cell-based, human; conditions: Homo sapiens, HL-60; drug 10 μM, 72 hours, WST-1, OD450 nm; read-out: cell viability (survival rate), HL-60

O=c1n(CCCN2CCN(c3cccc(Cl)c3)CC2)nc2ccccn12 [Trazodone hydrochloride (Desyrel), Trazodone hydrochloride] showed a viability at 10 µM [1] of 112%, a viability at 10 µM ([2]; MCF7, 72 h, read-out: The results of antibiotic drug inhibiting cancer cell lines (cell viability analysis), MCF-7, MCF-7, repeated experiment) of 97.8% and a viability at 10 µM (U-2OS) of 57.6%. The viability [3] was 113%, the viability at 10 µM ([4]; 72 h, read-out: The results of antibiotic drug inhibiting cancer cell lines (cell viability analysis), PC-3, PC-3, repeated experiment) was 126% and the viability at 10 µM [5] was 114%. The viability at 10 µM (NIH: OVCAR-3) was 103%, the viability at 10 µM [6] was 87.8% and the viability at 10 µM (BxPC-3) was 73.5%. It also gave a viability at 10 µM ([7]; A-375, 72 h, read-out: The results of antibiotic drug inhibiting cancer cell lines (cell viability analysis), A375, A375, repeated experiment) of 111%, a viability at 10 µM ([8]; 72 h, read-out: The results of antibiotic drug inhibiting cancer cell lines (cell viability analysis), TSGH-8301, TSGH-8301, repeated experiment) of 134% and a viability at 10 µM (T24) of 106%. The viability at 10 µM ([9]; MKN-45, 72 h, read-out: The results of antibiotic drug inhibiting cancer cell lines (cell viability analysis), MKN-45, MKN-45, repeated experiment) was 108%, the viability at 10 µM (AsPC-1) was 89.4% and the viability at 10 µM [10] was 110%. It also gave a viability at 10 µM [11] of 58.4%, a viability at 10 µM ([12]; 72 h, read-out: The results of antibiotic drug inhibiting cancer cell lines (cell viability analysis), LoVo, repeated experiment) of 88.8% and a viability at 10 µM ([13]; 72 h, read-out: The results of antibiotic drug inhibiting cancer cell lines (cell viability analysis), HeLa, repeated experiment) of 105%. It also gave a viability at 10 µM ([14]; NCI-H1650, 72 h, read-out: The results of antibiotic drug inhibiting cancer cell lines (cell viability analysis), H1650, H1650, repeated experiment) of 82.4%, a viability at 10 µM ([15]; HepG2, 72 h, read-out: The results of antibiotic drug inhibiting cancer cell lines (cell viability analysis), HepG2, HepG2, repeated experiment) of 109% and a viability at 10 µM [16] of 95.5%. The viability at 10 µM ([17]; 72 h, read-out: The results of antibiotic drug inhibiting cancer cell lines (cell viability analysis), AGS, repeated experiment) was 120%, the viability at 10 µM (TOV-21G) was 107% and the viability at 10 µM ([18]; A549, 72 h, read-out: The results of antibiotic drug inhibiting cancer cell lines (cell viability analysis), A549, A549, repeated experiment) was 92%. The “inhibition effect on different cancer cell lines” value (cancer cell lines) was “significant inhibition effect”.
CCC[C@H](NC(=O)[C@@H]1[C@H]2CCC[C@H]2CN1C(=O)[C@@H](NC(=O)[C@@H](NC(=O)c1cnccn1)C1CCCCC1)C(C)(C)C)C(=O)C(=O)NC1CC1 [Telaprevir (VX-950), Telaprevir] was tested, and the viability at 10 µM [1] was 102%, the viability at 10 µM ([2]; MCF7, 72 h, MCF-7, repeated experiment, read-out: The results of antibiotic drug inhibiting cancer cell lines (cell viability analysis), MCF-7) was 76.4% and the viability at 10 µM ([2]; MCF7, drug 10 μM, 72 hours, WST-1, OD450 nm, read-out: cell viability (survival rate), MCF7) was 61.6%. For the same molecule, the viability at 10 µM (U-2OS) was 63.4%, the viability [3] was 93.6% and the viability at 10 µM ([4]; 72 h, PC-3, repeated experiment, read-out: The results of antibiotic drug inhibiting cancer cell lines (cell viability analysis), PC-3) was 89.2%. The viability at 10 µM ([4]; drug 10 μM, 72 hours, WST-1, OD450 nm, read-out: cell viability (survival rate), PC3) was 50%, the viability at 10 µM [5] was 92.5% and the viability at 10 µM (NIH: OVCAR-3) was 95.6%. It also gave a viability at 10 µM [6] of 95.6%, a viability at 10 µM (BxPC-3) of 63.9% and a viability at 10 µM ([7]; A-375, 72 h, A375, repeated experiment, read-out: The results of antibiotic drug inhibiting cancer cell lines (cell viability analysis), A375) of 105%. For the same molecule, the viability at 10 µM ([7]; A-375, drug 10 μM, 72 hours, WST-1, OD450 nm, read-out: cell viability (survival rate), A375) was 131%, the viability at 10 µM ([8]; 72 h, TSGH-8301, repeated experiment, read-out: The results of antibiotic drug inhibiting cancer cell lines (cell viability analysis), TSGH-8301) was 103% and the viability at 10 µM ([8]; drug 10 μM, 72 hours, WST-1, OD450 nm, read-out: cell viability (survival rate), TSGH) was 50.2%. The viability at 10 µM (T24) was 115%, the viability at 10 µM ([9]; 72 h, MKN-45, repeated experiment, read-out: The results of antibiotic drug inhibiting cancer cell lines (cell viability analysis), MKN-45) was 107% and the viability at 10 µM ([9]; MKN-45, drug 10 μM, 72 hours, WST-1, OD450 nm, read-out: cell viability (survival rate), MKN-45) was 48%. It also gave a viability at 10 µM (AsPC-1) of 69.3%, a viability at 10 µM [10] of 121% and a viability at 10 µM [11] of 67.6%. The viability at 10 µM ([12]; 72 h, repeated experiment, read-out: The results of antibiotic drug inhibiting cancer cell lines (cell viability analysis), LoVo) was 87%, the viability at 10 µM ([12]; drug 10 μM, 72 hours, WST-1, OD450 nm, read-out: cell viability (survival rate), LoVo) was 73.7% and the viability at 10 µM ([13]; 72 h, repeated experiment, read-out: The results of antibiotic drug inhibiting cancer cell lines (cell viability analysis), HeLa) was 92.6%. The viability at 10 µM ([13]; drug 10 μM, 72 hours, WST-1, OD450 nm, read-out: cell viability (survival rate), HeLa) was 84%, the viability at 10 µM ([14]; NCI-H1650, 72 h, H1650, repeated experiment, read-out: The results of antibiotic drug inhibiting cancer cell lines (cell viability analysis), H1650) was 107% and the viability at 10 µM ([14]; NCI-H1650, drug 10 μM, 72 hours, WST-1, OD450 nm, read-out: cell viability (survival rate), H1650) was 51.6%. For the same molecule, the viability at 10 µM ([15]; 72 h, HepG2, repeated experiment, read-out: The results of antibiotic drug inhibiting cancer cell lines (cell viability analysis), HepG2) was 114%, the viability at 10 µM ([15]; HepG2, drug 10 μM, 72 hours, WST-1, OD450 nm, read-out: cell viability (survival rate), HepG2) was 100% and the viability at 10 µM [16] was 94.8%. The viability at 10 µM ([17]; 72 h, AGS, repeated experiment, read-out: The results of antibiotic drug inhibiting cancer cell lines (cell viability analysis), AGS) was 111%, the viability at 10 µM ([17]; drug 10 μM, 72 hours, WST-1, OD450 nm, read-out: cell viability (survival rate), AGS) was 49.2% and the viability at 10 µM (TOV-21G) was 81.6%. For the same molecule, the viability at 10 µM ([18]; 72 h, A549, repeated experiment, read-out: The results of antibiotic drug inhibiting cancer cell lines (cell viability analysis), A549) was 80.4%, the viability at 10 µM ([18]; A549, drug 10 μM, 72 hours, WST-1, OD450 nm, read-out: cell viability (survival rate), A549) was 49.3% and the viability at 10 µM [19] was 111%.
